# Read-outs that look alike come from different tables or passages of the source.
# Legend:
# Format in all cases: physicochemical
# [1] = Total degradation products of porcine insulin formulations by C18 reverse-phase HPLC
# Procedure: Six test formulations were prepared at proline concentrations of 0, 1.6 M and 2.8 M with acetone concentrations at 0 and 3 mg/ml, as listed in the following table. Those test formulations were stored at room temperature in the dark. At times, aliquots were withdrawn to be analyzed on C18 reverse-phase HPLC to measure total degradation products, as summarized in the table below.
# [2] = Visual precipitation of insulin solutions stored at room temperature in the dark
# Procedure: Insulin was dissolved in 0.10 N hydrochloric acid (5 μL per milligram of insulin) and made into a series of solutions at its concentration of 4.0 mg/ml with various additives, and the pH was adjusted to pH 7.4 using 0.05 N sodium hydroxide. Samples were kept at room temperature (25° C.) in the dark.
# Zinc-free recombinant human insulin (16 mg) was dissolved in 0.10 N hydrochloric acid (70 microliters), and to this insulin was added 6.0 ml of the above proline solution. This stock solution was further made into a series of solutions at its concentration of 2.0 mg/ml with various additives at pH 7.4. Samples were kept at room temperature (25° C.) in the dark.
# After six months, there were no precipitates visible at the bottom, and the solutions were all visually clear. As shown in Example 1 above, insulin without proline forms precipitates in a few days.
# Repeat preparation as in Example 2 at proline concentration of 1.0 M, 1.5 M, 2.4 M and 7.0 M, without glycerol and m-cresol. All samples were stored at room temperature in the dark over six month to find no visible insulin precipitate.
# [3] = Covalent insulin dimers quantified by SEC HPLC during storage; details: zinc-free insulin and zinc-insulin with EDTA, Example 4
# Procedure: A group of stock solutions were prepared: proline (6.25 M) in water, EDTA (0.10 M, pH 7.4), glycerol(320 mg/ml) containing m-Cresol (25 mg/ml) in water, sodium insulin(10 mg/ml) in phosphate buffer (25 mM, pH 7.4). Eight formulations were prepared using those stock solutions as in the table below.
# All the eight formulations were kept at room temperature in the dark. At times, aliquots were withdrawn for HPLC analysis (Injection volume: 0.10 ml).
# During the storage, covalent insulin dimers were quantified by SEC HPLC, and the results are summarized below.
# Column: Protein Pak, 125 Å, Waters, WAT084601
# Mobile Phase: 20% Acetonitrile, 15% acetic acid, 65% water
smiles,measurement,setting,value
CC(C)=O [acetone],Effect on total amount of degradation side products,"[1]; porcine insulin, period of 8 weeks, Example 5",further enhances the stabilizing effect of proline
N=C(N)NCCC[C@H](N)C(=O)O [arginine],Effect of arginine on precipitation of monomeric insulin,"[2]; arginine at 0.5 M, Example 1",has ability to deter monomeric insulin from precipitation
O=C(O)[C@@H]1CCCN1 [proline],Effect on formation of high molecular weight insulin degradation side products,[3],reduces formation of high molecular weight insulin degradation side products
same,Effect on total amount of degradation side products,[1],reduces total amount of degradation side products
same,Effect of proline on precipitation of monomeric insulin,"[2]; proline 2.4 M, Example 2",ability to deter monomeric insulin from precipitation

# Reference: patent US20140024582A1, “STABLE INSULIN FORMULATIONS AND METHODS OF MAKING AND USING THEREOF” (Genecopoeia, Inc., priority 2010, published 2014)
